In patent US20230292744A1, “FLYING PEST CONTROL COMPOSITION AND FLYING PEST CONTROL SPRAY” (Kao Corporation, priority 2019, published 2023):

Experiments:
Type in all cases: physicochemical
[1] = Surface tension at 25° C. by the Wilhelmy method; details: 3 mmol/kg aqueous solution of the wetting agent, value 10 minutes after immersion
Text: With respect to respective wetting agents described in Table 1, one obtained by dissolving each wetting agent in water to prepare an aqueous solution having a concentration of 3 mmol/kg was used as a measurement sample. With respect to a flying pest exterminating composition described of each of the Examples, the foregoing composition was used as it was as a measurement sample. These measurement samples were each poured into a glass-made Petri dish having a diameter of 6.4 cm and a depth of 3.8 cm, and after removing air bubbles on the water surface, the measurement was performed in the state that the resulting sample was allowed to stand still for 30 minutes or more. In the present measurement, using a surface tension balance “K100” (manufactured by KRÜSS GmbH), a platinum plate was kept immersed in the aforementioned aqueous solution in a depth of 1 mm, and a measured value 10 minutes after the immersion was taken as a value of the surface tension.

[2] = Reach amount of sprayed droplets; details: spray container A, horizontal distance 30 cm, per spraying (five trigger operations)
Description: A spray in which a 3 mmol/kg aqueous solution of the wetting agent shown in Table 1 was filled in a spray container A shown in Table 2 was prepared.
In the evaluation method described in the preceding section, one in which instead of the mesh net (3), a paper towel (“Kim Towel White”, manufactured by Nippon Paper Crecia Co., Ltd.) cut into a size of 6 cm×6 cm was stuck to the front face (11) of the frame (1) with a double-sided tape was prepared. Before the evaluation, the total weight of the frame (1) and the paper towel was measured, and then, the spray was fixed at a position where the horizontal distance d until the front face (11) of the frame (1) was 30 cm such that the tip of the spray nozzle (that is, the ejection port) (41) of the spray container (4) reached, and the trigger operation was performed five times toward the inside of the frame (1) to spray the aqueous solution. After spraying, the weights of the frame (1) and the paper towel were measured, and a reach amount of the sprayed droplets per spraying was calculated according to the following calculation equation.
(Reach amount of sprayed droplets (mg/cm^2 per time)={(Weights of frame and paper towel after spraying)−(Weights of frame and paper towel before spraying)}/(Area (36 cm^2) of paper towel)/(Spraying time (five times))
It can be judged that the wetting agent is one in which the larger the reach amount of sprayed droplets, the higher the straightness of the spray droplets when used for the flying pest exterminating composition, and the more excellent the action of capable of efficiently reaching the flying pests.

[3] = tested on: Wings of Aedes albopictus (female); experiment: Contact angle against wings of mosquito; details: 0.5 μL of 3 mmol/kg aqueous solution, 25° C., one second after dropping, θ/2 method
Text: Wings of Aedes albopictus (female) were collected, and 8 to 10 pieces of the collected wings were arranged without generating gaps on a double-sided tape (“NITTO TAPE”, manufactured by Nitto Denko Corporation).

Compound	25° C. surface tension [1] [mN/m]	Reach amount of sprayed droplets of 3 mmol/kg aqueous solution [2] [mg/cm^2]	Contact angle against wing of mosquito [3] [°]
CCCCCCCCCCCCOS(=O)(=O)[O-].[Na+] [g, Sodium lauryl sulfate]	29.20	5.7	111.0
C10-C14 alkyl glucoside [b]	29.61	1.7	55.0
Polyoxyethylene(19) lauryl ether [f]	42.13	3.2	113.8
Polyoxyethylene(5) lauryl ether	27.34	0.5	38.6
CCCCC(CC)COCC(O)CO (stereo not drawn) [e, 2-Ethylhexyl glyceryl ether]	38.30	1.7	79.1
Polyoxyethylene(47) lauryl ether [j]	50.54	6.1	116.4
Polyoxyethylene(3) lauryl ether [i]	26.13	0.2	54.0
Benzalkonium chloride	32.68	3.1	80.0
Polyoxyethylene(9) lauryl ether [c]	31.82	2.4	64.8
Polyoxyethylene(12) lauryl ether [d]	36.09	2.6	71.9
